According to patent US11661404B2, “Prodrug compounds activated by AKR1C3 and their use for treating hyperproliferative disorders” (priority 2018, dated 2023):
Like-named read-outs stand apart in the source and are kept apart here.

Columns and labels:
[1] = tested on: wild-type HCT116 colon cancer cells; experiment: Anti-proliferative IC50 assay (SRB), wild-type HCT116; assay type: cell-based, human
Source text: (§1) The cellular cytotoxicity of compounds of the invention resulting from AKR1C3-dependent metabolism of the compounds can readily be observed in anti-proliferative IC50 testing in isogenic cell lines that have been engineered to over-express human AKR1C3, relative to their wild-type counterparts that have been selected for their comparatively low levels of endogenous AKR1C3 expression (by Western blot analysis). The direct role of AKR1C3 in metabolism and cytotoxicity of the compounds is further supported for selected examples by repeat anti-proliferative experiments in the presence of a potent and selective small molecule inhibitor of AKR1C3, SN34037 (Flanagan et al., Bioorganic & Medicinal Chemistry (2014), 22(3), 967-977).
(§2) Four hundred cells were seeded in a volume of 100 μL in each well of a 96-well plate. The cells were left in a humidified incubator (37° C., 5% CO2) for 2 hours in order to enable attachment to the surface of the wells prior to compound addition. All compounds were prepared as stocks in DMSO and stored at −80° C. Frozen stocks of compounds were thawed immediately prior to addition to cells. Working solutions of each compound were made in α-MEM+5% FBS (v/v) at 3 times the required final concentration for the top well. The final concentration of DMSO in the α-MEM solution was ensured to not exceed 1% of the total volume. 50 μL of the working solution was added to the top wells (in duplicates) and gently mixed. The solubility of some compounds precluded the working solution in α-MEM to be 3 times the desired top well concentration. […] A 3-fold serial dilution was carried out along the plate starting from the top well. The first column of wells on the plate served as blanks (containing α-MEM+FBS) and the second column served as control wells (containing cells with no compound added). Following compound addition, the plates were incubated for 4 hours in a humidified incubator (37° C., 5% CO2).
(§3) Following the 4 hour compound exposure, the 96-well plates were washed three times by aspirating media with an Immuno Washer (Nunc) and each well replaced with 150 μL of α-MEM+5% (v/v) FBS+1% (v/v) P/S. The plates were left in a humidified incubator (37° C., 5% CO2) for 5 days to enable cell growth. The cells in 96-well plates were fixed 5 days after compound exposure by adding 50 μL of a 40% (w/v) trichloroacetic acid (TCA) solution so as to obtain a final TCA concentration of 10% in each well. The plates were left in the refrigerator (4° C.) for 1 hour and subsequently rinsed 3 times in tap water. Any excess water was left to drain and the cells were stained with 50 μL of 0.4% (w/v) sulforhodamine B (SRB). The plates with the SRB stain were left in the dark for 30 minutes. Excess stain was removed from the wells by rinsing the plates 4 times in water containing 1% (v/v) acetic acid. The stain was solubilised by adding 100 μL of 10 mM unbuffered Tris (pH 10.5) to each well and the plates were left in a shaker in a dark environment at room temperature for at least 1 hour. The absorbance values of the wells were determined by an ELx 808 Absorbance Microplate Reader (Bio-Tek Instruments, Winooski, Vt., USA), with the wavelength of the measurement filter set at 490 nm and a reference filter set at 450 nm. The absorbance of the reference filter was subtracted from the measurement filter to obtain a final absorbance of λ490-450 nm. The absorbance data was analysed and IC50 values determined by the KC4 microplate data analysis software (KC4™ V3.4, Bio-Tek).
(§4) Anti-proliferative IC50 assays were repeated as described above including the addition of 3 μM SN34037, a selective and potent small molecule inhibitor of AKR1C3.

[2] = tested on: HCT116 colon cancer cells engineered to over-express AKR1C3; experiment: Anti-proliferative IC50 assay (SRB), HCT116 over-expressing AKR1C3; assay type: cell-based, human; settings: for IC50 Ratio WT:AKR1C3: HCT116-WT vs HCT116-AKR1C3
Source text: as §1, §2, §3, §4

AKR1C3 mixed MCLs = settings: Silva, MSc Thesis; cited from earlier work
[3] = tested on: mixed MCLs that only express 1% of the activating reductase E. coli NfsB; settings: 1% NfsB-expressing cells; Singleton et al., 2007; cited from earlier work
[4] = tested on: wild-type SNU398 hepatocellular carcinoma cells; experiment: Anti-proliferative IC50 assay, wild-type SNU398; assay type: cell-based; settings: Homo sapiens
Protocol: as §2, §3, §4
(§5) Materials and methods used are as described for Example 9. […] This is a surprising finding and considerably greater than the approximately 77-fold, 270-fold and 400-fold increase in sensitivity observed for PR-104A, SN33540 and SN34454, respectively. In all cases, this increase in cytotoxicity resulting from expression of AKR1C3 can be substantially reversed by addition of an AKR1C3 inhibitor (SN34037), directly implicating metabolism of the prodrugs by AKR1C3 in the observed increase in cytotoxicity. As an important control, introduction of SN34037 had no anti-proliferative effects in wild-type SNU398 cells treated with compounds of the invention.

[5] = tested on: SNU398 hepatocellular carcinoma cells engineered to over-express AKR1C3; experiment: Anti-proliferative IC50 assay, SNU398 over-expressing AKR1C3; assay type: cell-based, human; settings: for IC50: Homo sapiens
Protocol: as §2, §3, §4, §5

[6] = tested on: wild-type H460 lung cancer cells; experiment: Anti-proliferative IC50 assay, wild-type H460; assay type: cell-based, human; settings: for IC50: Homo sapiens
Protocol: as §2, §3, §4
(§6) Materials and methods used are as described for Example 9.

[7] = tested on: wild-type PLC/PRF/5 hepatocellular carcinoma cells; experiment: Anti-proliferative IC50 assay, wild-type PLC/PRF/5; assay type: cell-based, human; settings: Homo sapiens, PLC-PRF-5
Protocol: as §2, §3, §4, §6

[8] = tested on: wild-type HCT116 colon cancer cells; experiment: Anti-proliferative IC50 under oxic and anoxic conditions; assay type: cell-based, human; settings: for IC50: Homo sapiens, HCT-116
Source text: PR-104A was initially designed and optimised as a hypoxia-selective cytotoxin (Patterson et al, Clinical Cancer Research, 2007, 13, 3922-3932). In the context of an AKR1C3-activated prodrug, this route of activation is considered off-mechanism and may potentially be undesirable, leading to off-target toxicities in a subject. Preferred compounds of the invention have been determined to be substantially resistant to hypoxia-dependent activation and cytotoxicity in wild-type HCT116 colon cancer cells. HCT116 cells were treated with compounds of the invention under either oxic or anoxic conditions and then their degree of anti-proliferative activity determined.
Selected compounds were evaluated for cytotoxic potential (IC50) under anoxic conditions. The same procedures as described above for Examples 9-11 were carried out in a Bactron anoxic chamber (Sheldon Manufacturing Inc) with internal 37° C. incubators where palladium catalyst scrubbed gas (90% N2, 5% H2, 5% CO2) ensured severe anoxia (<0.001% O2) in the whole chamber. All materials required (including cells) were taken into the chamber through two cycles of vacuum and gassing with 100% N2, followed by a single cycle with 5% CO2 and 5% hydrogen in nitrogen. All experimental materials were placed in the anoxic chamber at least 3 days prior to the day required for the experiment in order to remove any traces of residual O2. The medium used for the 96-well plates in the anoxic chamber consisted of α-MEM+10% (v/v) FBS+1% (v/v) additives (1 M β-D-Glucose and 20 mM 2′-Deoxycytidine).

[9] = SNU-398, read-out: SNU398-WT +AKR1C3 Inhibitor Anti-proliferative IC50
[10] = SNU-398, read-out: SNU398-WT Anti-proliferative IC50
[11] = SNU-398, read-out: SNU398-AKR1C3 +AKR1C3 Inhibitor Anti-proliferative IC50
[12] = SNU-398, read-out: SNU398-AKR1C3 Anti-proliferative IC50
[13] = NCI-H460, read-out: H460-WT +AKR1C3 Inhibitor Anti-proliferative IC50
[14] = NCI-H460, read-out: H460-WT Anti-proliferative IC50
[15] = read-out: PLC/PRF/5-WT Anti-proliferative IC50
[16] = with 3 μM SN34037, read-out: PLC/PRF/5-WT +AKR1C3 Inhibitor Anti-proliferative IC50

SMILES | IC50 Ratio WT:AKR1C3 [2] | BEE reported in AKR1C3 mixed MCLs (AKR1C3 mixed MCLs) | IC50 [4, 9] | IC50 [4, 10] | IC50 [5, 11] | IC50 [5, 12] | IC50 [6, 13] | IC50 [6, 14] | IC50 [7, 15] | IC50 [7, 16] | further results
O=C(NCCO)c1cc([N+](=O)[O-])cc([N+](=O)[O-])c1N(CCBr)CCBr [SN27686, reference compound] | 29 | 57.6% |  |  |  |  |  |  |  |  | IC50 ([1]; 4 hour exposure, 5 days growth, read-out: HCT116-WT IC50): 42.6 µM; IC50 ([2]; 4 hour exposure, 5 days growth, read-out: HCT116-AKR1C3 IC50): 1.46 µM; bystander effect [3]: 48%
CN1CCN(S(=O)(=O)c2cc([N+](=O)[O-])ccc2N(CCBr)CCBr)CC1 [Compound 563, N,N-bis(2-bromoethyl)-2-((4-methylpiperazin-1-yl)sulfonyl)-4-nitroaniline] | 816 |  | 5.87 µM | 6.93 µM | 4.19 µM | 0.015 µM | 3.09 µM | 0.019 µM | 4.2 µM | 21.5 µM | IC50 ([1]; Homo sapiens, HCT-116, read-out: HCT116-WT IC50): 7.34 µM; IC50 ([1]; read-out: HCT116-WT + AKR1C3 Inhibitor IC50, with 3 μM SN34037): 5.89 µM; more cytotoxic than SN34118 to AKR1C3-expressing HCT116 cells [2]: 43 fold; IC50 ([2]; Homo sapiens, HCT-116, read-out: HCT116-AKR1C3 IC50): 0.009 µM; IC50 ([2]; read-out: HCT116-AKR1C3 + AKR1C3 Inhibitor IC50, with 3 μM SN34037): 3.26 µM; more cytotoxic in H460 cells than SN34118 [6]: 82 fold
CN1CCN(C(=O)c2cc([N+](=O)[O-])cc([N+](=O)[O-])c2N(CCBr)CCOS(C)(=O)=O)CC1 [SN33540, reference compound] |  | 60% | 248 µM | 231 µM | 193 µM | 0.844 µM | 97.7 µM | 0.536 µM | 83.9 µM | 248 µM | increase in sensitivity when SNU398 cells express AKR1C3 ([5]; SNU398-WT vs SNU398-AKR1C3): ~270 fold; IC50 ([8]; anoxic (<0.001% O2), read-out: HCT116-WT Anti-proliferative IC50 Anoxic): 5.1 µM; IC50 ([8]; read-out: HCT116-WT Anti-proliferative IC50 Oxic): 127 µM; Hypoxic Cytotoxicity Ratio (HCR) ([8]; oxic vs anoxic IC50, HCT116-WT): 25
CS(=O)(=O)O.CS(=O)(=O)OCCN(CCOS(C)(=O)=O)c1ccc([N+](=O)[O-])cc1S(=O)(=O)N1CCNCC1 |  |  |  |  |  |  |  |  |  |  | melting point: 147 to 149 °C
